Reference: patent US20220023279A1, “COMPOSITIONS FOR TREATMENT OF SYMPHYSIOLYSIS” (priority 2018, published 2022)
Counter-ions that a name gives are not always drawn.

Columns and labels:
[1] = tested on: patient suffering from symphysiolysis; experiment: Example 1: subcutaneous local anesthetic to the inguinal region, pregnant patient with symphysiolysis confined to a wheelchair; assay type: in vivo, human; conditions: each side of inguinal region
Description: A patient weighing about 60 kilograms had previously suffered from a car accident with injury to their left leg, resulting in complex regional pain syndrome. Walking was impaired, and crutches were required for mobility. During pregnancy, they were diagnosed with symphysiolysis and they were confined to a wheelchair as they were unable to ambulate using crutches.
The treatment lasted for one hour. After one hour, additional Bupivacaine HCl was administered, 0.5% of an amount of 5 ml, diluted in 5 ml of saline solution to each side of the inguinal region.
Before and after the administration ultrasound to test fetal pulse was performed to confirm that there was a fetal pulse. The patient was directed to perform fetal monitoring on the day after the administration.

[2] = tested on: patient suffering from symphysiolysis; experiment: Example 3: subcutaneous lidocaine and bupivacaine to the inguinal region, person in 31st week of pregnancy with symphysiolysis; assay type: in vivo, human
Excerpt: A person, weighing about 60 kilograms, in their 20th week complained of groin pains which spread to their right leg. They had difficulty walking and appeared to be dragging their right leg. Upon examination, no sensitivity in symphysis pubis joint was evident. Sensitivity was noticeable at the right sacroiliac joint. Reducing physical activity was recommended by the physician.
(§1) After about six weeks, the patient returned with noticeable sensitivity at the left sacroiliac joint, and some sensitivity at the right sacroiliac joint. Painkillers and orthopedic stabilization of the hip were recommended. NSAIDs were prescribed to be used until the 31st week. The patient had symptoms of symphysiolysis in the 29th week which were relieved using NSAID therapy (diclofenac sodium).
During the 31st week, the patient felt an increase in symphysiolysis. […] The patient complained of temporary paralysis during walking, difficulty sleeping and difficulty sitting because of pain in the groin and back areas. Subcutaneous anesthesia to the inguinal region was recommended. A fetal ultrasound was performed, and fetal movement and pulse were both satisfactory.
The patient was injected, subcutaneously in the inguinal region with 1% lidocaine.
Two days post lidocaine treatment, the patient felt increased pain, and paresthesia in the legs. […] Twenty minutes after the lidocaine administration, the patient received bupivacaine, 0.5%, in an amount of 5 ml to both sides (not diluted with saline), via subcutaneous administration to the inguinal region. […] The patient reported fatigue.

[3] = tested on: patient suffering from symphysiolysis; experiment: Example 3: NSAID therapy of symphysiolysis symptoms in the 29th week of pregnancy; assay type: in vivo, human
Excerpt: as §1

[4] = tested on: patient suffering from symphysiolysis; conditions: 5 ml lidocaine HCl 1%, subcutaneous, both sides
Description: They were recommended to perform orthopedic support, physical therapy and to medicate with oral paracetamol and dipyrone for pain management. Bedrest was recommended.
At 35 weeks they felt an increase in the severity of symphysiolysis. They used orthopedic support methods which were not sufficient to relieve the symptoms. They had considered inducing labor and using a walker to enhance mobility.

SMILES: CCCCN1CCCCC1C(=O)Nc1c(C)cccc1C (centres unmarked) [Bupivacaine HCl]
- additional duration of mobility ([1]; Bupivacaine HCl 0.5%, 5 ml diluted in 5 ml saline, given one hour after lidocaine HCl): nine

SMILES: CCCCN1CCCCC1C(=O)Nc1c(C)cccc1C (centres unmarked) [Bupivacaine]
- pain level ([2]; five hours after lidocaine, bupivacaine 0.5%, 5 ml both sides, given twenty minutes after lidocaine): further improvement in pain level
- pain, walking and walking speed ([2]; three hours after lidocaine, bupivacaine 0.5%, 5 ml both sides undiluted, subcutaneous, given twenty minutes after lidocaine): significant improvement in walking, decrease in pain, and increase in walking speed
- side effect reported by the patient ([2]; three hours after lidocaine, bupivacaine 0.5%, 5 ml both sides, given twenty minutes after lidocaine): fatigue

SMILES: CCN(CC)CC(=O)Nc1c(C)cccc1C [Lidocaine]
- pain and walking ([2]; 5 minutes after second treatment, 1 ml lidocaine 1% without saline, subcutaneous, both sides): improvement in walking, but pain still remained
- back pains ([2]; 20 hours after first treatment, 1% lidocaine subcutaneous in inguinal region): back pains returned, but to a lesser extent than before the treatment
- sleeping ([2]; night after first treatment, 1% lidocaine subcutaneous in inguinal region): greatly improved
- pain and walking ([2]; six hours after first treatment, 1% lidocaine subcutaneous in inguinal region): less of an influence of the anesthetic, but still felt that walking was better than before the treatment
- pain and walking ([2]; ten minutes after second treatment, 1 ml lidocaine 1% without saline, subcutaneous, both sides): able to walk without pain and did not feel back pain
- pain and walking ([2]; three hours after first treatment, 1% lidocaine subcutaneous in inguinal region): improvement in pain and in walking but still felt minor freezing of gait

SMILES: O=C(O)Cc1ccccc1Nc1c(Cl)cccc1Cl [diclofenac sodium]
- symptoms of symphysiolysis under NSAID therapy [3]: relieved

SMILES: CCN(CC)CC(=O)Nc1c(C)cccc1C [lidocaine HCl]
- side effects reported by the patient after the treatment [4]: slight dizziness and occasionally heat rate increases
- ability to climb stairs ([4]; after 30 minutes): able climb stairs without significant pain
- pain in hip joint which had limited walking ([4]; after 30 minutes): significantly reduced
- relief of symphysiolysis symptoms ([4]; after 30 minutes): significant relief
- sharp pain in the left groin area ([4]; after 30 minutes): disappeared
- patient condition after administration (standing, pain, need of wheelchair) ([1]; lidocaine HCl 1%, 5 ml diluted with 5 ml saline, subcutaneous): able to stand without pain and no longer required a wheelchair
